Reference: the OligoGym collection
HELM strings list units from the 5' end as sugar, base in round brackets, then linkage (d deoxyribose, r ribose, m 2'-O-methyl, p phosphodiester). Strings are as the collection lists them; they lack the last nucleoside at the 3' end of the tested compound. [moe] = 2'-O-(2-methoxyethyl) (MOE); [sp] = phosphorothioate linkage; [m5C] = 5-methylcytosine

Target: SMN2
Experiment: mouse, dose not given
Conditions: ASO

Question: Which 3 h FOB score does the source give for “RNA1{[moe](T)[sp].[moe]([m5C])[sp].[moe](A)[sp].[moe]([m5C])[sp].[moe](T)[sp].[moe](T)[sp].[moe](T)[sp].[moe]([m5C])[sp].[moe](A)p.[moe](T)[sp].[moe](A)[sp].[moe](A)[sp].[moe](T)[sp].[moe](G)[sp].[moe]([m5C])p.[moe](T)[sp].[moe](G)}$$$$ (last 3' nucleoside missing)” here?
Answer: Its 3 h FOB score is 3.25 score 0-7.

Question: Which 3 h FOB score does the source give for “RNA1{[moe](T)[sp].[moe]([m5C])[sp].[moe](A)[sp].[moe]([m5C])[sp].[moe](T)[sp].[moe](T)[sp].[moe](T)[sp].[moe]([m5C])[sp].[moe](A)p.[moe](T)[sp].[moe](A)[sp].[moe](A)[sp].[moe](T)[sp].[moe](G)p.[moe]([m5C])[sp].[moe](T)[sp].[moe](G)}$$$$ (last 3' nucleoside missing)” here?
Answer: The 3 h FOB score was 3.5 score 0-7.

Question: With “RNA1{[moe](T)[sp].[moe]([m5C])[sp].[moe](A)[sp].[moe]([m5C])[sp].[moe](T)[sp].[moe](T)[sp].[moe](T)[sp].[moe]([m5C])p.[moe](A)[sp].[moe](T)[sp].[moe](A)[sp].[moe](A)[sp].[moe](T)[sp].[moe](G)[sp].[moe]([m5C])[sp].[moe](T)[sp].[moe](G)}$$$$ (last 3' nucleoside missing)” as the substance, how does the 3 h FOB score read?
Answer: Its 3 h FOB score is 4.25 score 0-7.

Question: With “RNA1{[moe](T)[sp].[moe]([m5C])[sp].[moe](A)[sp].[moe]([m5C])[sp].[moe](T)[sp].[moe](T)[sp].[moe](T)[sp].[moe]([m5C])p.[moe](A)p.[moe](T)[sp].[moe](A)[sp].[moe](A)[sp].[moe](T)[sp].[moe](G)[sp].[moe]([m5C])[sp].[moe](T)[sp].[moe](G)}$$$$ (last 3' nucleoside missing)” as the substance, how does the 3 h FOB score read?
Answer: Its 3 h FOB score is 4 score 0-7.

Question: How did the 3 h FOB score turn out when “RNA1{[moe](T)[sp].[moe]([m5C])[sp].[moe](A)[sp].[moe]([m5C])[sp].[moe](T)[sp].[moe](T)p.[moe](T)[sp].[moe]([m5C])[sp].[moe](A)[sp].[moe](T)[sp].[moe](A)[sp].[moe](A)[sp].[moe](T)[sp].[moe](G)[sp].[moe]([m5C])[sp].[moe](T)[sp].[moe](G)}$$$$ (last 3' nucleoside missing)” was run?
Answer: The 3 h FOB score was 4 score 0-7.

Question: For “RNA1{[moe](T)[sp].[moe]([m5C])[sp].[moe](A)[sp].[moe]([m5C])p.[moe](T)[sp].[moe](T)[sp].[moe](T)[sp].[moe]([m5C])[sp].[moe](A)[sp].[moe](T)[sp].[moe](A)[sp].[moe](A)[sp].[moe](T)[sp].[moe](G)[sp].[moe]([m5C])[sp].[moe](T)[sp].[moe](G)}$$$$ (last 3' nucleoside missing)”, which 3 h FOB score is on record?
Answer: Its 3 h FOB score is 3.5 score 0-7.

Question: Which 3 h FOB score does the source give for “RNA1{[moe](T)[sp].[moe]([m5C])p.[moe](A)[sp].[moe]([m5C])[sp].[moe](T)[sp].[moe](T)[sp].[moe](T)[sp].[moe]([m5C])[sp].[moe](A)[sp].[moe](T)[sp].[moe](A)[sp].[moe](A)[sp].[moe](T)[sp].[moe](G)[sp].[moe]([m5C])[sp].[moe](T)[sp].[moe](G)}$$$$ (last 3' nucleoside missing)” here?
Answer: The 3 h FOB score was 3.25 score 0-7.

Question: “RNA1{[moe](T)[sp].[moe]([m5C])p.[moe](A)[sp].[moe]([m5C])[sp].[moe](T)[sp].[moe](T)[sp].[moe](T)[sp].[moe]([m5C])[sp].[moe](A)[sp].[moe](T)[sp].[moe](A)[sp].[moe](A)[sp].[moe](T)[sp].[moe](G)[sp].[moe]([m5C])p.[moe](T)[sp].[moe](G)}$$$$ (last 3' nucleoside missing)” was tested. Which 3 h FOB score did it give?
Answer: The 3 h FOB score was 3.5 score 0-7.

Question: Which 3 h FOB score does the source give for “RNA1{[moe](T)[sp].[moe]([m5C])p.[moe](A)[sp].[moe]([m5C])[sp].[moe](T)[sp].[moe](T)[sp].[moe](T)[sp].[moe]([m5C])[sp].[moe](A)p.[moe](T)[sp].[moe](A)[sp].[moe](A)[sp].[moe](T)[sp].[moe](G)[sp].[moe]([m5C])[sp].[moe](T)[sp].[moe](G)}$$$$ (last 3' nucleoside missing)” here?
Answer: Its 3 h FOB score is 4 score 0-7.

Question: For “RNA1{[moe](T)[sp].[moe]([m5C])p.[moe](A)[sp].[moe]([m5C])p.[moe](T)[sp].[moe](T)[sp].[moe](T)[sp].[moe]([m5C])[sp].[moe](A)[sp].[moe](T)[sp].[moe](A)[sp].[moe](A)[sp].[moe](T)[sp].[moe](G)[sp].[moe]([m5C])[sp].[moe](T)[sp].[moe](G)}$$$$ (last 3' nucleoside missing)”, which 3 h FOB score is on record?
Answer: The 3 h FOB score was 3.75 score 0-7.

Question: “RNA1{[moe](T)[sp].[moe]([m5C])p.[moe](A)p.[moe]([m5C])[sp].[moe](T)[sp].[moe](T)[sp].[moe](T)[sp].[moe]([m5C])[sp].[moe](A)[sp].[moe](T)[sp].[moe](A)[sp].[moe](A)[sp].[moe](T)[sp].[moe](G)[sp].[moe]([m5C])[sp].[moe](T)[sp].[moe](G)}$$$$ (last 3' nucleoside missing)” was tested. Which 3 h FOB score did it give?
Answer: The 3 h FOB score was 4.75 score 0-7.

Question: With “RNA1{[moe](T)p.[moe](T)[sp].[moe]([m5C])[sp].[moe](A)[sp].[moe]([m5C])[sp].[moe](T)[sp].[moe](T)[sp].[moe](T)[sp].[moe]([m5C])[sp].[moe](A)[sp].[moe](T)[sp].[moe](A)[sp].[moe](A)[sp].[moe](T)[sp].[moe](G)[sp].[moe]([m5C])[sp].[moe](T)[sp].[moe](G)[sp].[moe](G)}$$$$ (last 3' nucleoside missing)” as the substance, how does the 3 h FOB score read?
Answer: The 3 h FOB score was 3.25 score 0-7.

Question: How did the 3 h FOB score turn out when “RNA1{[moe](T)p.[moe](T)[sp].[moe]([m5C])[sp].[moe](A)[sp].[moe]([m5C])[sp].[moe](T)[sp].[moe](T)[sp].[moe](T)[sp].[moe]([m5C])[sp].[moe](A)[sp].[moe](T)[sp].[moe](A)[sp].[moe](A)[sp].[moe](T)[sp].[moe](G)[sp].[moe]([m5C])[sp].[moe](T)[sp].[moe](G)}$$$$ (last 3' nucleoside missing)” was run?
Answer: Its 3 h FOB score is 4 score 0-7.

Question: How did the 3 h FOB score turn out when “RNA1{[moe]([m5C])[sp].[moe](A)[sp].[moe]([m5C])[sp].[moe](T)[sp].[moe](T)[sp].[moe](T)[sp].[moe]([m5C])[sp].[moe](A)[sp].[moe](T)[sp].[moe](A)[sp].[moe](A)[sp].[moe](T)[sp].[moe](G)[sp].[moe]([m5C])[sp].[moe](T)[sp].[moe](G)[sp].[moe](G)[sp].[moe]([m5C])[sp].[moe](A)}$$$$ (last 3' nucleoside missing)” was run?
Answer: The 3 h FOB score was 0 score 0-7.

Question: “RNA1{[moe]([m5C])[sp].[moe](A)[sp].[moe]([m5C])[sp].[moe](T)[sp].[moe](T)[sp].[moe](T)[sp].[moe]([m5C])[sp].[moe](A)[sp].[moe](T)[sp].[moe](A)[sp].[moe](A)[sp].[moe](T)[sp].[moe](G)[sp].[moe]([m5C])[sp].[moe](T)[sp].[moe](G)[sp].[moe](G)[sp].[moe]([m5C])}$$$$ (last 3' nucleoside missing)” was tested. Which 3 h FOB score did it give?
Answer: The 3 h FOB score was 0 score 0-7.

Question: For “RNA1{[moe]([m5C])[sp].[moe](A)[sp].[moe]([m5C])[sp].[moe](T)[sp].[moe](T)[sp].[moe](T)[sp].[moe]([m5C])[sp].[moe](A)[sp].[moe](T)[sp].[moe](A)[sp].[moe](A)[sp].[moe](T)[sp].[moe](G)[sp].[moe]([m5C])[sp].[moe](T)[sp].[moe](G)[sp].[moe](G)}$$$$ (last 3' nucleoside missing)”, which 3 h FOB score is on record?
Answer: The 3 h FOB score was 2.5 score 0-7.

Question: Which 3 h FOB score does the source give for “RNA1{[moe]([m5C])[sp].[moe](A)[sp].[moe]([m5C])[sp].[moe](T)[sp].[moe](T)[sp].[moe](T)[sp].[moe]([m5C])[sp].[moe](A)[sp].[moe](T)[sp].[moe](A)[sp].[moe](A)[sp].[moe](T)[sp].[moe](G)[sp].[moe]([m5C])[sp].[moe](T)[sp].[moe](G)}$$$$ (last 3' nucleoside missing)” here?
Answer: The 3 h FOB score was 3.25 score 0-7.

Question: “RNA1{[moe]([m5C])[sp].[moe](A)[sp].[moe]([m5C])[sp].[moe](T)[sp].[moe](T)[sp].[moe](T)[sp].[moe]([m5C])[sp].[moe](A)[sp].[moe](T)[sp].[moe](A)[sp].[moe](A)[sp].[moe](T)[sp].[moe](G)[sp].[moe]([m5C])[sp].[moe](T)p.[moe](G)[sp].[moe](G)}$$$$ (last 3' nucleoside missing)” was tested. Which 3 h FOB score did it give?
Answer: Its 3 h FOB score is 0 score 0-7.

Question: For “RNA1{[moe]([m5C])[sp].[moe](A)[sp].[moe]([m5C])[sp].[moe](T)[sp].[moe](T)[sp].[moe](T)[sp].[moe]([m5C])[sp].[moe](A)[sp].[moe](T)[sp].[moe](A)[sp].[moe](A)[sp].[moe](T)[sp].[moe](G)[sp].[moe]([m5C])p.[moe](T)p.[moe](G)[sp].[moe](G)}$$$$ (last 3' nucleoside missing)”, which 3 h FOB score is on record?
Answer: The 3 h FOB score was 0 score 0-7.

Question: Which 3 h FOB score does the source give for “RNA1{[moe]([m5C])[sp].[moe](A)[sp].[moe]([m5C])[sp].[moe](T)[sp].[moe](T)[sp].[moe](T)[sp].[moe]([m5C])[sp].[moe](A)[sp].[moe](T)[sp].[moe](A)[sp].[moe](A)[sp].[moe](T)[sp].[moe](G)p.[moe]([m5C])[sp].[moe](T)[sp].[moe](G)[sp].[moe](G)}$$$$ (last 3' nucleoside missing)” here?
Answer: The 3 h FOB score was 0 score 0-7.

Question: How did the 3 h FOB score turn out when “RNA1{[moe]([m5C])[sp].[moe](A)[sp].[moe]([m5C])[sp].[moe](T)[sp].[moe](T)[sp].[moe](T)[sp].[moe]([m5C])[sp].[moe](A)[sp].[moe](T)[sp].[moe](A)[sp].[moe](A)[sp].[moe](T)[sp].[moe](G)p.[moe]([m5C])[sp].[moe](T)p.[moe](G)[sp].[moe](G)}$$$$ (last 3' nucleoside missing)” was run?
Answer: The 3 h FOB score was 0 score 0-7.

Question: Which 3 h FOB score does the source give for “RNA1{[moe]([m5C])[sp].[moe](A)[sp].[moe]([m5C])[sp].[moe](T)[sp].[moe](T)[sp].[moe](T)[sp].[moe]([m5C])[sp].[moe](A)[sp].[moe](T)[sp].[moe](A)[sp].[moe](A)[sp].[moe](T)p.[moe](G)p.[moe]([m5C])[sp].[moe](T)[sp].[moe](G)[sp].[moe](G)}$$$$ (last 3' nucleoside missing)” here?
Answer: Its 3 h FOB score is 0 score 0-7.

Question: Which 3 h FOB score does the source give for “RNA1{[moe]([m5C])[sp].[moe](A)[sp].[moe]([m5C])[sp].[moe](T)[sp].[moe](T)[sp].[moe](T)[sp].[moe]([m5C])[sp].[moe](A)[sp].[moe](T)[sp].[moe](A)[sp].[moe](A)[sp].[moe](T)p.[moe](G)p.[moe]([m5C])p.[moe](T)p.[moe](G)[sp].[moe](G)}$$$$ (last 3' nucleoside missing)” here?
Answer: The 3 h FOB score was 0 score 0-7.
